Assay results: patent US20250051362A1, “SUBSTITUTED FUSED HETEROCYCLIC COMPOUND, AND PREPARATION METHOD THEREFOR AND USE THEREOF” (Shanghai Annova Biotechnology Co., Ltd., priority 2021, published 2025)

How the values were obtained:
ATR kinase = ATR kinase (Homo sapiens (Human), UniProt Q13535); experiment: In vitro ATR kinase inhibition assay (Mobility Shift Assay, Caliper EZ Reader); format: biochemical; conditions: ATP concentration of Km; 4 h at 28° C.
Protocol: Experimental method: The inhibitory activity of the compounds on ATR kinase in vitro was determined by Mobility Shift Assay at an ATP concentration of Km using Caliper EZ Reader as a mobility shift assaying technology based on microfluidic chip technology.
Experimental procedure: (1) The compounds to be tested were dissolved in DMSO and serially diluted 4× for a total of 10 concentrations; (2) 0.06 μL of the compounds at different concentrations were pipetted into a 384-well plate using an Echo pipetting system; (3) a 2× kinase solution with a concentration of 10 nM ATR kinase was prepared from the ATR kinase and the 1× kinase buffer; and a 2× substrate solution with a concentration of 6 μM 5-FAM-AK-17 and 4 μM ATP was prepared from 5-FAM-AK-17, ATP and the 1× kinase buffer; (4) 10 μL of the 2× kinase solution was added into the 384-well plate and incubated for 10 min at room temperature; 10 μL of the 2× substrate solution was then added and incubated for 4 h at 28° C.; (5) 30 μL of the termination buffer was added to terminate the reaction, and then the 384-well plate was put into the Caliper EZ Reader to read the conversion rate data.

[1] = test system: human colon cancer LoVo cells; experiment: Cell proliferation inhibition assay (CellTiter-Glo); format: cell-based; conditions: LoVo cells, 96 hours incubation; for Emax: read-out: Max Inhibition
Description: Experimental method: A CellTiter-Glo cell viability assay kit was used to test the inhibitory effect of the compounds on the in vitro proliferation of human colon cancer LoVo cells.
Experimental materials: LoVo cells (ATCC, Cat. No. CCL-29); F-12K medium (Invitrogen, Cat. No. 21127-022); fetal bovine serum (Biological Industries, Cat. No. 04-002-1A); GlutaMAX (Gibco, Cat. No. 35050-061); 0.25% trypsin-EDTA (Invitrogen, Cat. No. 25200-072); CellTiter-Glo kit (Promega, Cat. No. G7558).
Experimental procedure: (1) F-12K medium, fetal bovine serum and GlutaMAX were formulated into a complete medium for culturing LoVo cells; (2) well-grown LoVo cells were taken, digested with trypsin and transferred to a centrifuge tube, and centrifuged; the supernatant was discarded, and cells were resuspended by adding a fresh medium and counted by a Vi-CELL XR cell counter; the density of the cell suspension was adjusted to 25,000 to 30,000 cells/mL, and the cell suspension was added at 100 μL/well in a 96-well cell culture plate, while a blank control group was set up with no cells added, and the cell culture plate was incubated in a carbon dioxide incubator overnight; (3) a DMSO solution of the compound to be tested was dispensed into the above 96-well cell culture plate using an HP D300 ultra-micro sampler, with 0.5 μL of the solution per well and 10 concentrations for each compound (3× dilution), while a DMSO control group with no compound added was set up, and the plate was continued to be incubated in a carbon dioxide incubator for 96 hours; (4) the cell culture plate was taken out and equilibrated to room temperature, with 100 μL of a CellTiter-Glo reagent added to each well, and then the plate was kept away from light, shaken for 10 minutes and then incubated for 10 minutes; (5) the cell culture plate was put into EnSpire for plate reading, and the luminescence value RLU was recorded.
Data processing: (1) The inhibition rate was calculated from the luminescence values: “RLUDMSO” is the luminescence value of the DMSO control group without compound, “RLUblank” is the luminescence value of the blank control group without cells, and “RLUcompound” is the luminescence value of the compound test group, and the inhibition rate=[1−(RLUcompound−RLUblank)/(RLUDMSO−RLUblank)]×100%; (2) with curve fitting using the Excel add-on XLFit, the IC50 value was calculated.

Sequence of ATR kinase (Q13535 whole entry): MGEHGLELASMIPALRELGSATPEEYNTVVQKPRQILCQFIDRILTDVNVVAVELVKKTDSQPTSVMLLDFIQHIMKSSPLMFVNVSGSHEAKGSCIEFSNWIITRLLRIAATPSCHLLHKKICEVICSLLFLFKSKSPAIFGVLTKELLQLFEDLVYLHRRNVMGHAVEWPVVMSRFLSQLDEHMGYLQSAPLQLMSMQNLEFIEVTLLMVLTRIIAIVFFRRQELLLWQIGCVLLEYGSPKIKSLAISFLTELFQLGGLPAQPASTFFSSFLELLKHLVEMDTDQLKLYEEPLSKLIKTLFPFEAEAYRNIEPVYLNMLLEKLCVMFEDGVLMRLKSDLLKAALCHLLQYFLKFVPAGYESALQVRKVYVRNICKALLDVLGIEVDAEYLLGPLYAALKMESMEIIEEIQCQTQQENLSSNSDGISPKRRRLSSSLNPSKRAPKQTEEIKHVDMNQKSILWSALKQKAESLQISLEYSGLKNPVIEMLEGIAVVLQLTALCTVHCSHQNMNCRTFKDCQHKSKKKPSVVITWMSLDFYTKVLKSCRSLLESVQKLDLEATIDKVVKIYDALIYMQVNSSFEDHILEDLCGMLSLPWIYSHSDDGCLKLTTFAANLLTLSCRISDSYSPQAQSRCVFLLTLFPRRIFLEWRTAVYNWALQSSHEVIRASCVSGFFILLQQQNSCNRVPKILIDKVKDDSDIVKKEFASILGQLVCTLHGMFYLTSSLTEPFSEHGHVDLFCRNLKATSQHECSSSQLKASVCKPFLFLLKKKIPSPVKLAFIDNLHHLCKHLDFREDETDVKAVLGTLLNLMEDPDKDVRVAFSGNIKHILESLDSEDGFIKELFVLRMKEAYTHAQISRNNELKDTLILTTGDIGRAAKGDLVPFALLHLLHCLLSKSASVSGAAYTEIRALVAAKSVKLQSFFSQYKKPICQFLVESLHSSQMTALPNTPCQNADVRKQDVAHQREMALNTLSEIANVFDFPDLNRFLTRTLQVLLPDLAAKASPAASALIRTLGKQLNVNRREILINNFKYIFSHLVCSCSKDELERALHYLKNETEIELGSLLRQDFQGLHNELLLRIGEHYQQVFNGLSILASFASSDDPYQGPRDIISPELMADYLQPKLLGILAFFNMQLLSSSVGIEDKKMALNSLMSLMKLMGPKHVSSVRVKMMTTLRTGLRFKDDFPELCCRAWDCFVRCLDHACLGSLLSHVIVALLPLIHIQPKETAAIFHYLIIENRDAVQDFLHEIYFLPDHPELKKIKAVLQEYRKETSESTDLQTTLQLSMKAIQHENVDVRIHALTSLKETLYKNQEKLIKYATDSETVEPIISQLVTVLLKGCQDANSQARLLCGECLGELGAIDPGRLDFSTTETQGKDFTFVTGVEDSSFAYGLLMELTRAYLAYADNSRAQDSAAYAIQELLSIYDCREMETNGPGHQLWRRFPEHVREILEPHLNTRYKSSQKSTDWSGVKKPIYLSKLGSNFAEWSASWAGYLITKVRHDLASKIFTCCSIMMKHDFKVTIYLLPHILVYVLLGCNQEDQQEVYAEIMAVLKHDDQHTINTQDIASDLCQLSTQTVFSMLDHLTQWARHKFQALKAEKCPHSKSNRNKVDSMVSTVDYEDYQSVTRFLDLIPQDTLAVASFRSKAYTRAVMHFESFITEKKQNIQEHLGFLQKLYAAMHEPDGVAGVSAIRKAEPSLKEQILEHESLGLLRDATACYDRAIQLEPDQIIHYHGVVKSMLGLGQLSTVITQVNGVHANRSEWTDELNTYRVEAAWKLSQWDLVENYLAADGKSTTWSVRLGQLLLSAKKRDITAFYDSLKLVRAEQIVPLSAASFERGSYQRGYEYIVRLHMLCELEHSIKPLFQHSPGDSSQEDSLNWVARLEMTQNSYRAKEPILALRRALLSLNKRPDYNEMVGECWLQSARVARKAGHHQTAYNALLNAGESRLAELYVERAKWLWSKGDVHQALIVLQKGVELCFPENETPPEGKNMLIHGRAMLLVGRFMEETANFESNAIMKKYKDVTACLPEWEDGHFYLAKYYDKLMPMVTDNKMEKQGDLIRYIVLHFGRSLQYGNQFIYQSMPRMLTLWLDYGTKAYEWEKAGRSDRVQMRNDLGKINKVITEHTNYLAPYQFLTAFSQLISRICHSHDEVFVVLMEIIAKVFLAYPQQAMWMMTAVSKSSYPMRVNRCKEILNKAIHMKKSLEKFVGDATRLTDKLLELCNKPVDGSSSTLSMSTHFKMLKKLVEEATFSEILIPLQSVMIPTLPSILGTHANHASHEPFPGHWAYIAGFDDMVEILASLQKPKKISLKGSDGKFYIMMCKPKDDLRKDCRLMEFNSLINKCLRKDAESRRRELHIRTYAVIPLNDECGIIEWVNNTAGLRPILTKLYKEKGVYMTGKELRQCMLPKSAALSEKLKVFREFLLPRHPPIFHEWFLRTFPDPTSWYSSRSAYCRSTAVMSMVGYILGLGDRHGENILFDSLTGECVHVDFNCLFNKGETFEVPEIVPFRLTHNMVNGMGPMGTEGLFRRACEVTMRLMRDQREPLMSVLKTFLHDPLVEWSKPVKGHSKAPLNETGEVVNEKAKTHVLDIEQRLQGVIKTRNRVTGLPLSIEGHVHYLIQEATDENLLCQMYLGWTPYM
Sequence of ATR kinase (Q8WXE1 whole entry partner): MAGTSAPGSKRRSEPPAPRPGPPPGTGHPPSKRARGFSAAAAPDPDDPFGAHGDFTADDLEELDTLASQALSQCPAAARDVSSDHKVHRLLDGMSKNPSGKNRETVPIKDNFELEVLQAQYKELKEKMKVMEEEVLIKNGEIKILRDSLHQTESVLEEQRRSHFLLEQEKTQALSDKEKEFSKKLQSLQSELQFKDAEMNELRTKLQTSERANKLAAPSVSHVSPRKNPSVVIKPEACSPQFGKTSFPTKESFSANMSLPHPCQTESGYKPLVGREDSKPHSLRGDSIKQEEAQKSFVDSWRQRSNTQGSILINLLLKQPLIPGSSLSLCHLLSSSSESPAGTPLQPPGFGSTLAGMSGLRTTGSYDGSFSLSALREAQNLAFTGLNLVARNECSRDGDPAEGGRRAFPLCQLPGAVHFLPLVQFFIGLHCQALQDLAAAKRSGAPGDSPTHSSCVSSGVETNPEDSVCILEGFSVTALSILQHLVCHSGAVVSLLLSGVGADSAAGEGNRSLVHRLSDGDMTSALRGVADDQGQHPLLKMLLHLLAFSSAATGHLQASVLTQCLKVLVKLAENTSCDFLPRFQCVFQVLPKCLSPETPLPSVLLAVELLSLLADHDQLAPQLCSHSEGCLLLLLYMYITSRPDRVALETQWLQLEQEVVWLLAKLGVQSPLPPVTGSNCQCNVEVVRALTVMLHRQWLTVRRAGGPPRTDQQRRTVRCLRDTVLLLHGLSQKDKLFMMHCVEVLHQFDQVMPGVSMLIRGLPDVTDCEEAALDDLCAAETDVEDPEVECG

| Compound | IC50 (ATR kinase) | Emax ([1]; Homo sapiens) | IC50 [1] | Max Inhibition [1] | IC50 ([1]; Homo sapiens) |
| --- | --- | --- | --- | --- | --- |
| C[C@@H]1COCCN1c1cc(-c2cccc3[nH]ccc23)nc2c1ccn2S(C)(=O)=O [Compound 2, (R)-4-(6-(1H-indol-4-yl)-1-(methylsulfonyl)-1H-pyrrolo[2,3-b]pyridin-4-yl)-3-methylmorpholine] | 4.2 nM | 94% | – | – | – |
| C[C@@H]1COCCN1c1nc(-c2cc(C#N)cc3[nH]ccc23)nc2c1ccn2S(C)(=O)=O [Compound 30, (R)-4-(4-(3-methylmorpholinyl)-7-(methylsulfonyl)-7H-pyrrolo[2,3-d]pyrimidin-2-yl)-1H-indol-6-carbonitrile] | 9.4 nM | – | 1060 nM | 93% | – |
| C[C@@H]1COCCN1c1nc(-c2ccnc3[nH]ccc23)cc2c1ccn2S(C)(=O)=O [Compound 26, (R)-3-methyl-4-(1-(methylsulfonyl)-6-(1H-pyrrolo[2,3-b]pyridin-4-yl)-1H-pyrrolo[3,2-c]pyridin-4-yl)morpholine] | 8.6 nM | 92% | – | – | – |
| C[C@@H]1COCCN1c1nc(-c2cncc3[nH]ccc23)cc2c1ncn2S(C)(=O)=O [Compound 25, (R)-3-methyl-4-(1-(methylsulfonyl)-6-(1H-pyrrolo[2,3-c]pyridin-4-yl)-1H-imidazo[4,5-c]pyridin-4-yl)morpholine] | 9.4 nM | 89% | – | – | – |
| C[C@@H]1COCCN1c1nc(-c2cncc3[nH]ccc23)nc2c1ccn2S(C)(=O)=O [Compound 19, (R)-3-methyl-4-(7-(methylsulfonyl)-2-(1H-pyrrolo[2,3-c]pyridin-4-yl)-7H-pyrrolo[2,3-d]pyrimidin-4-yl)morpholine] | 1.6 nM | 90% | – | – | – |
| C[C@@H]1COCCN1c1nc(-c2ccnc3[nH]ccc23)nc2c1cnn2S(C)(=O)=O [Compound 23, (R)-3-methyl-4-(1-(methylsulfonyl)-6-(1H-pyrrolo[2,3-b]pyridin-4-yl)-1H-pyrazolo[3,4-d]pyrimidin-4-yl)morpholine] | 15 nM | 92% | – | – | 740 nM |
| C[C@@H]1COCCN1c1cc(-c2ccnc3[nH]ccc23)nc2c1ccn2S(=O)(=O)C1CC1 [Compound 15, (R)-4-(1′-(cyclopropylsulfonyl)-1H,1′H-[4,6′-dipyrrolo[2,3-b]pyridin]-4′-yl)-3-methylmorpholine] | 12 nM | – | 1270 nM | 94% | – |
| C[C@@H]1COCCN1c1nc(-c2ccnc3[nH]ccc23)nc2c1ccn2S(=O)(=O)CCO [Compound 21, (R)-2-((4-(3-methylmorpholinyl)-2-(1H-pyrrolo[2,3-b]pyridin-4-yl)-7H-pyrrolo[2,3-d]pyrimidin-7-yl)sulfonyl)ethanol] | 4.4 nM | – | 710 nM | 92% | – |
| C[C@@H]1COCCN1c1cc(-c2ccnc3[nH]ccc23)nc2c1ccn2S(C)(=O)=O [Compound 1, (R)-3-methyl-4-(1′-(methylsulfonyl)-1H,1′H-[4,6′-dipyrrolo[2,3-b]pyridin]-4′-yl)morpholine] | 5.5 nM | – | 660 nM | – | – |
| C[C@@H]1COCCN1c1nc(-c2cc(Cl)cc3[nH]ccc23)nc2c1ccn2S(C)(=O)=O [Compound 31, (R)-4-(2-(6-chloro-1H-indol-4-yl)-7-(methylsulfonyl)-7H-pyrrolo[2,3-d]pyrimidin-4-yl)-3-methylmorpholine] | 4.4 nM | 93% | – | – | – |
| CC(C)S(=O)(=O)n1ccc2c(N3CCOC[C@H]3C)cc(-c3ccnc4[nH]ccc34)nc21 [Compound 14, (R)-4-(1′-(isopropylsulfonyl)-1H,1′H-[4,6′-dipyrrolo[2,3-b]pyridin]-4′-yl)-3-methylmorpholine] | 35 nM | – | 2130 nM | 93% | – |
| C[C@@H]1COCCN1c1nc(-c2cc(F)cc3[nH]ccc23)nc2c1ccn2S(C)(=O)=O [Compound 20, (R)-4-(2-(6-fluoro-1H-indol-4-yl)-7-(methylsulfonyl)-7H-pyrrolo[2,3-d]pyrimidin-4-yl)-3-methylmorpholine] | 1.6 nM | 91% | – | – | – |
| C[C@@H]1COCCN1c1nc(-c2ccnc3[nH]ccc23)nc2c1ccn2S(C)(=O)=O [Compound 17, (R)-3-methyl-4-(7-(methylsulfonyl)-2-(1H-pyrrolo[2,3-b]pyridin-4-yl)-7H-pyrrolo[2,3-d]pyrimidin-4-yl)morpholine] | 1.6 nM | 93% | – | – | – |
| C[C@@H]1COCCN1c1nc(-c2nc3ccccc3[nH]2)nc2c1ccn2S(C)(=O)=O [Compound 27, (R)-4-(2-(1H-benzo[d]imidazol-2-yl)-7-(methylsulfonyl)-7H-pyrrolo[2,3-d]pyrimidin-4-yl)-3-methylmorpholine] | 1.6 nM | 94% | – | – | – |
